These results are taken from ChEMBL document CHEMBL4680259, “Discovery of bazedoxifene analogues targeting glycoprotein 130” (Eur J Med Chem, 2020).

Experiment [1] has as its system A549. Briefly: Antiproliferative activity against human A549 cells assessed as cell growth inhibition measured after 24 hrs by MTT assay. In kind it is functional, cell-based. Particulars: A549, 24 h.
The target in experiment [2] is T1, Interleukin-6 receptor subunit beta (Homo sapiens) (UniProt P40189).
T1 sequence (whole entry): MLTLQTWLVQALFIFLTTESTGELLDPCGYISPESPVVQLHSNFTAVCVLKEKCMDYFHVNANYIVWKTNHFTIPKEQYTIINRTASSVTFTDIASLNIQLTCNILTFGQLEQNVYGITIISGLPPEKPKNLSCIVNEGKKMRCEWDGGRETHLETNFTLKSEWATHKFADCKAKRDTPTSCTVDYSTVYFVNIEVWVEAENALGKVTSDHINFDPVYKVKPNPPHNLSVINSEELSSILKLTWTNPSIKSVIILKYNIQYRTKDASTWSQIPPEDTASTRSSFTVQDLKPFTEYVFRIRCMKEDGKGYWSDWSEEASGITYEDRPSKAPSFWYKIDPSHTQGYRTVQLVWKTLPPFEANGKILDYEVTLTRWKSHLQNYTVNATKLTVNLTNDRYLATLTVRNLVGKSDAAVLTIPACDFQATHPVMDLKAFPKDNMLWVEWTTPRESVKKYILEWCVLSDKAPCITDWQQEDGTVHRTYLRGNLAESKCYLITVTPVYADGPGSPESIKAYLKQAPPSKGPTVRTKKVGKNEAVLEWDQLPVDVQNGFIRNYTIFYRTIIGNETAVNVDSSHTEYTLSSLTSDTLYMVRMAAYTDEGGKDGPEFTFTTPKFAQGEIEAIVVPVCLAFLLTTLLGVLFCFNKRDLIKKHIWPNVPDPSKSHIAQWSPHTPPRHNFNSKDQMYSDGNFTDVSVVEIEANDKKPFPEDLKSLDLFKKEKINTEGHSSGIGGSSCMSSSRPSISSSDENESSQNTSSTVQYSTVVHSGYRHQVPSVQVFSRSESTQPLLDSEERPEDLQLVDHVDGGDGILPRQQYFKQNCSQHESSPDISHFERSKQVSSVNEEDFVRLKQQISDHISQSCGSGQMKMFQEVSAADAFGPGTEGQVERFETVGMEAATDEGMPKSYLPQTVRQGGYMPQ
The experiment can be described thus: Binding affinity to immobilized GP130 (unknown origin) assessed as response unit at 20 uM by SPR analysis. A general note: In SPR one partner is held on a chip, and binding of the other changes the refractive index at the surface.

With `NC(=O)N1N=C(c2ccc(C(F)(F)F)cc2)C[C@H]1c1cn(Cc2ccc(OCCN3CCCCCC3)cc2)c2ccc(Br)cc12`, in experiment [1], the 50% inhibitory concentration (IC50) (usually the concentration at which inhibition is half-maximal) worked out at 3.04 µM. Moreover, in experiment [2], the Activity worked out at 37.4 RU.

`NC(=O)N1N=C(c2ccc(Br)cc2)CC1c1cn(Cc2ccc(OCCN3CCCCC3)cc2)c2ccc(Br)cc12` (stereo not given): the IC50 in experiment [1] was found to be 6.73 µM. In addition, the Activity in experiment [2] stood at 47.3 RU.

Take `COc1ccc(C2=NN(C(N)=O)C(c3cn(Cc4ccc(OCCN5CCCCC5)cc4)c4ccc(Br)cc34)C2)cc1` (stereo not given): the IC50 in experiment [1] came to 5.9 µM. In experiment [2], the Activity was 26.2 RU.

For the compound `NC(=O)N1N=C(c2ccc(C(F)(F)F)cc2)CC1c1cn(Cc2ccc(OCCN3CCOCC3)cc2)c2ccc(Br)cc12` (stereo not given), the IC50 in experiment [1] stood at 9.44 µM. For the same compound, in experiment [2], the Activity turned out to be 8.2 RU.

On to `NC(=O)N1N=C(c2cccc(C(F)(F)F)c2)CC1c1cn(Cc2ccc(OCCN3CCCCC3)cc2)c2ccc(Br)cc12` (stereo not given), for which the IC50 in experiment [1] was 5.42 µM. For the same compound, the Activity in experiment [2] came out at 10.2 RU.

`NC(=O)N1N=C(c2ccc(C(F)(F)F)cc2)CC1c1cn(Cc2ccc(OCCN3CCCCC3)cc2)c2ccccc12` (stereo not given): the IC50 in experiment [1] worked out at 5.6 µM. Further, in experiment [2], the Activity is 8.2 RU.

Take `CCCCCCCOc1ccc(Cn2cc(C3CC(c4ccc(C(F)(F)F)cc4)=NN3C(N)=O)c3cc(Br)ccc32)cc1` (stereo not given): the 50% inhibitory concentration (IC50) in experiment [1] was more than 50 µM. Besides, the Activity in experiment [2] was 0.6 RU.

Consider `COc1ccc(C2=NN(C(N)=O)C(c3cn(Cc4ccc(OCCN5CCCCC5)cc4)c4ccc(Br)cc34)C2)cc1OC` (stereo not given), for which the IC50 in experiment [1] came out at 7.43 µM. Moreover, the Activity in experiment [2] was found to be 30.1 RU.

For the compound `COc1cccc(C2=NN(C(N)=O)C(c3cn(Cc4ccc(OCCN5CCCCC5)cc4)c4ccc(Br)cc34)C2)c1` (stereo not given), the IC50 in experiment [1] came out at 6.23 µM. The Activity in experiment [2] was determined as 19.6 RU.

Regarding `NC(=O)N1N=C(c2ccc(Cl)cc2)CC1c1cn(Cc2ccc(OCCN3CCCCC3)cc2)c2ccc(Br)cc12` (stereo not given), in experiment [1], the IC50 was determined as 5.41 µM. Moreover, in experiment [2], the Activity stood at 29.2 RU.

As for `NC(=O)N1N=C(c2ccc(F)cc2)CC1c1cn(Cc2ccc(OCCN3CCCCC3)cc2)c2ccccc12` (stereo not given), in experiment [1], the IC50 is 7.44 µM. Besides, the Activity in experiment [2] amounted to 21 RU.

On to `COc1ccccc1C1=NN(C(N)=O)C(c2cn(Cc3ccc(OCCN4CCCCC4)cc3)c3ccc(Br)cc23)C1` (stereo not given), for which, in experiment [1], the IC50 came out at 6.98 µM. In experiment [2], the Activity was found to be 36.4 RU.

As for `NC(=O)N1N=C(c2ccc(C(F)(F)F)cc2)CC1c1cn(Cc2ccc(OCCC3CCNCC3)cc2)c2ccc(Br)cc12` (stereo not given), the IC50 in experiment [1] amounted to 4.62 µM. In experiment [2], the Activity was found to be 35 RU.

`NC(=O)N1N=C(c2cccc(Cl)c2)CC1c1cn(Cc2ccc(OCCN3CCCCC3)cc2)c2ccc(Br)cc12` (stereo not given): the IC50 in experiment [1] is 5.9 µM. Besides, the Activity in experiment [2] came out at 27.4 RU.

Consider `COc1ccc(C2=NN(C(N)=O)C(c3cn(Cc4ccc(OCCN5CCCCC5)cc4)c4ccc(OC)cc34)C2)cc1` (stereo not given), for which the IC50 in experiment [1] came to 14.4 µM. Besides, the Activity in experiment [2] is 28.8 RU.

On to `NC(=O)N1N=C(c2ccc(C(F)(F)F)cc2)C[C@@H]1c1cn(Cc2ccc(OCCN3CCCCCC3)cc2)c2ccc(Br)cc12`, for which the IC50 in experiment [1] was 6.16 µM. In addition, the Activity in experiment [2] worked out at 24.2 RU.

For `COc1ccc2c(c1)c(C1CC(c3cc(OC)c(OC)c(OC)c3)=NN1C(N)=O)cn2Cc1ccc(OCCN2CCCCC2)cc1` (stereo not given), the IC50 in experiment [1] amounted to 12.2 µM. Also, the Activity in experiment [2] is 16.2 RU.

Take `NC(=O)N1N=C(c2ccc(F)cc2)CC1c1cn(Cc2ccc(OCCN3CCCCC3)cc2)c2ccc(Br)cc12` (stereo not given): in experiment [1], the IC50 was 6.8 µM. Further, the Activity in experiment [2] came out at 19.9 RU.

As for `COc1cc(C2=NN(C(N)=O)C(c3cn(Cc4ccc(OCCN5CCCCC5)cc4)c4ccc(Br)cc34)C2)cc(OC)c1OC` (stereo not given), the IC50 in experiment [1] was found to be 6.96 µM. The Activity in experiment [2] came out at 32.7 RU.

As for `COc1cc(C2=NN(C(N)=O)C(c3cn(Cc4ccc(OCCN5CCCCC5)cc4)c4ccccc34)C2)cc(OC)c1OC` (stereo not given), the IC50 in experiment [1] amounted to 11.8 µM. For the same compound, in experiment [2], the Activity was 21.7 RU.

On to `NC(=O)N1N=C(c2ccc(C(F)(F)F)cc2)CC1c1cn(Cc2ccc(OCCN3CCCCC3)cc2)c2ccc(Br)cc12` (stereo not given), for which the IC50 in experiment [1] amounted to 4.69 µM. For the same compound, the Activity in experiment [2] came to 19.9 RU.

As for `CN(C)CCOc1ccc(Cn2cc(C3CC(c4ccc(C(F)(F)F)cc4)=NN3C(N)=O)c3cc(Br)ccc32)cc1` (stereo not given), in experiment [1], the half-inhibitory concentration (IC50) amounted to 6.21 µM. Moreover, the Activity in experiment [2] turned out to be 22.7 RU.

In the case of `COc1ccc2c(c1)c(C1CC(c3ccc(F)cc3)=NN1C(N)=O)cn2Cc1ccc(OCCN2CCCCC2)cc1` (stereo not given), in experiment [1], the IC50 was determined as 9.47 µM. In experiment [2], the Activity worked out at 10.9 RU.

Consider `COc1ccc(C2=NN(C(N)=O)C(c3cn(Cc4ccc(OCCN5CCCCC5)cc4)c4ccccc34)C2)cc1` (stereo not given), for which the IC50 in experiment [1] was determined as 12.7 µM. Further, in experiment [2], the Activity stood at 33.3 RU.

For `COc1ccc2c(c1)c(C1CC(c3ccc(C(F)(F)F)cc3)=NN1C(N)=O)cn2Cc1ccc(OCCN2CCCCC2)cc1` (stereo not given), in experiment [1], the IC50 amounted to 6.18 µM. In experiment [2], the Activity came out at 10.4 RU.
